Reference: ChEMBL document CHEMBL4196023, “Cyclic peptide inhibitors of lysine-specific demethylase 1 with improved potency identified by alanine scanning mutagenesis” (Eur J Med Chem, 2018)
Positions of bridges follow the written chain, without caps; N, C: chain ends. Residues, ends and D or L forms follow the SMILES beside them. *: point of attachment. Stearoyl = CCCCCCCCCCCCCCCCCC(=O)*

Columns and labels:
Type in all cases: functional, cell-based
[1] = system: Calu-6; experiment: Antiproliferative activity against human Calu6 cells after 72 hrs by MTS assay; details: Calu-6, 72 h
[2] = system: MCF7; experiment: Antiproliferative activity against human MCF7 cells after 72 hrs by MTS assay; details: MCF7, 72 h
[3] = system: K562; experiment: Antiproliferative activity against human K562 cells after 72 hrs by MTS assay; details: K562, 72 h

| IC50 [1] [µM] | IC50 [2] [µM] | IC50 [3] [µM] | SMILES |
| --- | --- | --- | --- |
| 7.9 | 4.4 |  | CCCCCCCCCCCCCCCCCC(=O)NCCCC[C@H](NC(=O)[C@H](C)NC(=O)[C@H](CC(C)C)NC(=O)[C@H](CCC(N)=O)NC(=O)[C@H](CCCCN)NC(=O)[C@H](CCCNC(=N)N)NC(=O)[C@@H]1CCCN1C(=O)[C@H](C)NC(=O)[C@H](CCCCN)NC(=O)CNC(=O)CNC(=O)[C@@H](NC(=O)[C@@H]1CCC(=O)NCCCC[C@H](NC(=O)[C@H](CCSC)NC(=O)[C@@H](NC(=O)[C@H](CCCNC(=N)N)NC(=O)[C@H](C)N)[C@@H](C)O)C(=O)N[C@@H]([C@@H](C)O)C(=O)N[C@@H](C)C(=O)N[C@@H](CCCNC(=N)N)C(=O)N[C@@H](CCCCN)C(=O)N1)[C@@H](C)O)C(N)=O |
| 10.1 | 4.6 |  | CCCCCCCCCCCCCCCCCC(=O)NCCCC[C@H](NC(=O)[C@H](C)NC(=O)[C@H](CC(C)C)NC(=O)[C@H](CCC(N)=O)NC(=O)[C@H](CCCCN)NC(=O)[C@H](CCCNC(=N)N)NC(=O)[C@@H]1CCCN1C(=O)[C@H](C)NC(=O)[C@H](CCCCN)NC(=O)CNC(=O)CNC(=O)[C@@H](NC(=O)[C@@H]1CCC(=O)NCCCC[C@H](NC(=O)[C@H](CCSC)NC(=O)[C@H](C)NC(=O)[C@H](CCCNC(=N)N)NC(=O)[C@H](C)N)C(=O)N[C@@H]([C@@H](C)O)C(=O)N[C@@H](C)C(=O)N[C@@H](CCCNC(=N)N)C(=O)N[C@@H](CCCCN)C(=O)N1)[C@@H](C)O)C(N)=O (H-ARAMKTARKETGGKAPRKQLAK(Stearoyl)-NH2; lactam 5-10) |
| 956 | 1240 | 139 | CC(C)C[C@H](NC(=O)[C@H](CCC(N)=O)NC(=O)[C@H](CCCCN)NC(=O)[C@H](CCCNC(=N)N)NC(=O)[C@@H]1CCCN1C(=O)[C@H](C)NC(=O)[C@H](CCCCN)NC(=O)CNC(=O)CNC(=O)[C@@H](NC(=O)[C@@H]1CCC(=O)NCCCC[C@H](NC(=O)[C@H](C)NC(=O)[C@@H](NC(=O)[C@H](CCCNC(=N)N)NC(=O)[C@H](C)N)[C@@H](C)O)C(=O)N[C@@H]([C@@H](C)O)C(=O)N[C@@H](C)C(=O)N[C@@H](CCCNC(=N)N)C(=O)N[C@@H](CCCCN)C(=O)N1)[C@@H](C)O)C(=O)N[C@@H](C)C(N)=O (H-ARTAKTARKETGGKAPRKQLA-NH2; lactam 5-10) |
| 93 | 154 | 8.2 | CSCC[C@H](NC(=O)[C@@H](NC(=O)[C@H](CCCNC(=N)N)NC(=O)[C@H](C)N)[C@@H](C)O)C(=O)N[C@H]1CCCCNC(=O)CC[C@@H](C(=O)N[C@H](C(=O)NCC(=O)NCC(=O)N[C@@H](CCCCN)C(=O)N[C@@H](C)C(=O)N2CCC[C@H]2C(=O)N[C@@H](CCCNC(=N)N)C(=O)N[C@@H](CCCCN)C(=O)N[C@@H](CCC(N)=O)C(=O)N[C@@H](CC(C)C)C(=O)N[C@@H](C)C(N)=O)[C@@H](C)O)NC(=O)[C@H](CCCCN)NC(=O)[C@H](CCCNC(=N)N)NC(=O)[C@H](C)NC(=O)[C@H](C)NC1=O (H-ARTMKAARKETGGKAPRKQLA-NH2; lactam 5-10) |
| 766 | 1010 | 42 | CSCC[C@H](NC(=O)[C@@H](NC(=O)[C@H](CCCNC(=N)N)NC(=O)[C@H](C)N)[C@@H](C)O)C(=O)N[C@H]1CCCCNC(=O)CC[C@@H](C(=O)N[C@H](C(=O)N[C@@H](C)C(=O)NCC(=O)N[C@@H](CCCCN)C(=O)N[C@@H](C)C(=O)N2CCC[C@H]2C(=O)N[C@@H](CCCNC(=N)N)C(=O)N[C@@H](CCCCN)C(=O)N[C@@H](CCC(N)=O)C(=O)N[C@@H](CC(C)C)C(=O)N[C@@H](C)C(N)=O)[C@@H](C)O)NC(=O)[C@H](CCCCN)NC(=O)[C@H](CCCNC(=N)N)NC(=O)[C@H](C)NC(=O)[C@H]([C@@H](C)O)NC1=O (H-ARTMKTARKETAGKAPRKQLA-NH2; lactam 5-10) |
